Assay results as given in patent publication US20260209152A1, “Substituted Hydroxystilbene Compounds and Derivatives, Synthesis and Uses Thereof” (Kynan Duke IP, LLC, priority 2019, published 2026).

What was measured:
Bladder HT-1197 = assay: CellTiter Glo cell viability assay; assay type: cell-based, human; settings: Homo sapiens, HT1197; HT-1197/CRL-1473; 11 dilutions 3-0.00001 μM; read-out: IC50
Protocol: (§1) 1.7*10^3 cells/well were seeded in quadruplicates in 96-well plate after plating. Drugs were added at 5 μM and 2-fold dilutions over 18 concentrations (0.000038146-5 […] range) to generate a dose-response curve. Cell growth was assessed on day 1, 3 and 5 after drug treatments using the CellTiter Glo Luminescence Cell Viability Assay (Promega) according to manufacturer's protocol. Thermo Scientific Varioskan LUX Multimode Microplate instrument was used for plate reading. Data are expressed as mean luminescence (arbitrary units) ±S.D.
(§2) Cell Viability Assays were employed to determine the concentration of Compound 1 (KYN-001) and analogues where the response is reduced by half. For each treatment of cancer cells, 1, 2, 5, 10 and 20 μM solutions of compounds were applied. GraphPad Prism 7 software was used to fit dose response curves. Relative Luminescence Units were plotted against the log values of the doses used and the nonlinear regression model was used for data analysis.
(§3) The protocol for cell proliferation was optimized for Compound 8 (KYN-119) to enable a more accurate assessment of its low IC50 value. In this protocol, 18 dosages (2 fold dilutions ranging from 0.000038146 to 5 μM) were applied to cells seeded in 96-well plates, and Luminescence was measured after 1, 3 and 5 days upon treatments.

Bladder T24 = assay: CellTiter Glo cell viability assay; assay type: cell-based, human; settings: Homo sapiens; T24/HTB-4; 11 dilutions 3-0.00001 μM; read-out: IC50
Protocol: as §1, §2, §3

Bladder UMUC_3 = assay: CellTiter Glo cell viability assay; assay type: cell-based, human; settings: Homo sapiens, UMUC3; UM-UC-3/CRL-1749; 11 dilutions 3-0.00001 μM; read-out: IC50
Protocol: as §1, §2, §3

Ewing's Sarcoma HTB-166 = assay: CellTiter Glo cell viability assay; assay type: cell-based, human; settings: Homo sapiens; RD-ES/HTB-166; 11 dilutions 3-0.00001 μM; read-out: IC50
Protocol: as §1, §2, §3

Liver HepG2 = assay: CellTiter Glo cell viability assay; assay type: cell-based, human; settings: Homo sapiens, HepG2; Hep G2/HB-8065; 11 dilutions 3-0.00001 μM; read-out: IC50
Protocol: as §1, §2, §3

Lung NCI-H1437 = assay: CellTiter Glo cell viability assay; assay type: cell-based, human; settings: Homo sapiens; NCI-H1437/CRL-5872; 11 dilutions 3-0.00001 μM; read-out: IC50
Protocol: as §1, §2, §3

Osteosarcomas SAOS-2 = assay: CellTiter Glo cell viability assay; assay type: cell-based, human; settings: Homo sapiens; Saos-2/HTB-85; 11 dilutions 3-0.00001 μM; read-out: IC50
Protocol: as §1, §2, §3

Pancreatic HPAFII = assay: CellTiter Glo cell viability assay; assay type: cell-based, human; settings: Homo sapiens; HPAF-II/CRL-1997; 11 dilutions 3-0.00001 μM; read-out: IC50
Protocol: as §1, §2, §3

Pancreatic PANC-1 = assay: CellTiter Glo cell viability assay; assay type: cell-based, human; settings: Homo sapiens; PANC-1/CRL-1469; 11 dilutions 3-0.00001 μM; read-out: IC50
Protocol: as §1, §2, §3

Tongue CAL 27 = assay: CellTiter Glo cell viability assay; assay type: cell-based, human; settings: Homo sapiens; CAL 27/CRL-2095; 11 dilutions 3-0.00001 μM; read-out: IC50
Protocol: as §1, §2, §3

Bladder RT4 = assay: CellTiter Glo cell viability assay; assay type: cell-based; settings: Homo sapiens; RT4/HTB-2; 11 dilutions 3-0.00001 μM; read-out: IC50
Protocol: as §1, §2, §3

Kidney 769-P = assay: CellTiter Glo cell viability assay; assay type: cell-based; settings: Homo sapiens; 769-P/CRL-1933; 11 dilutions 3-0.00001 μM; read-out: IC50
Protocol: as §1, §2, §3

Rhabomyosarcoma A-204 = assay: CellTiter Glo cell viability assay; assay type: cell-based; settings: Homo sapiens, A204; A-204/HTB-82; 11 dilutions 3-0.00001 μM; read-out: IC50
Protocol: as §1, §2, §3

GBM patient sample BNA99 = assay: Ex vivo GBM 3D spheroid drug response (CellTiter-Glo 3D); assay type: cell-based, human; settings: 3D spheroids, 4 days post drug treatment
Excerpt: (§4) This project involves an ex vivo drug response screen for 3 ROKiT Pharma test agents and Temozolomide in 3 previously dissociated and cryopreserved GBM samples.
(§5) • 2.1 Three previously processed GBM patient samples were chosen to be used in this study.

GBM patient sample BNB04 = assay: as above; assay type: cell-based, human; settings: Homo sapiens, 96 h, 3D spheroids; 4 days post drug treatment
Excerpt: as §4, §5

GBM patient sample BNB18 = assay: as above; assay type: cell-based, human; settings: 3D spheroids, 4 days post drug treatment
Excerpt: as §4, §5

Pancreatic CAPAN-1 = assay: CellTiter Glo cell viability assay; assay type: cell-based; settings: Homo sapiens; Capan-1/HTB-79; 11 dilutions 3-0.00001 μM
[1] = system: Cancer cells including pancreatic, bladder, kidney, colon, breast, lung, liver and osteosarcomas; assay: CellTiter Glo cell viability assay, panel of cancer cell lines; assay type: cell-based, human; settings: SAR discussion based on IC50 values in Tables 1 to 5; compared with 1 [KYN-001]
Outline: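 Cells (1.7*10^3/well) were seeded in quadruplicate and treated with 2-fold dilutions over 18 concentrations up to 5 μM, or with 1, 2, 5, 10 and 20 μM. Viability was read by CellTiter Glo luminescence on days 1, 3 and 5; half-maximal concentrations came from nonlinear regression of RLU versus log dose.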

Row | IC50 (Bladder T24) [µM] | IC50 (Ewing's Sarcoma HTB-166) [µM] | IC50 (Liver HepG2) [µM] | IC50 (Lung NCI-H1437) [µM] | IC50 (Pancreatic PANC-1) [µM] | IC50 (Rhabomyosarcoma A-204) [µM] | Structure (SMILES) | IC50 (Bladder HT-1197) [µM] | IC50 (Bladder UMUC_3) [µM] | IC50 (Osteosarcomas SAOS-2) [µM] | IC50 (Pancreatic HPAFII) [µM] | IC50 (Tongue CAL 27) [µM] | IC50 (Bladder RT4) [µM] | IC50 (Kidney 769-P) [µM] | IC50 (GBM patient sample BNA99; Homo sapiens, 96 h) [µM] | IC50 (GBM patient sample BNB04) [µM] | IC50 (GBM patient sample BNB18; Homo sapiens, 96 h) [µM] | IC50 (Pancreatic CAPAN-1) [µM] | IC50 (GBM patient sample BNA99) [µM] | IC50 (GBM patient sample BNB18) [µM] | Cancer cell viability inhibition, statement in words [1]
1 | 0.111 | 0.338 | 0.235 | 0.0732 | 0.0416 | 0.131 | CCOc1cc(O)cc(/C=C/c2ccc(O)c(O)c2)c1CC=C(C)C [Compound 20, (E)-4-(3-Ethoxy-5-hydroxy-2-(3-methylbut-2-en-1-yl)styryl)benzene-1,2-diol] | 0.0617 | 0.126 | 0.129 | 0.638 | 0.0409 | 2.01 | 0.174 | 19.1 | 23.7 | 4.56 | 2.24 |  |  | 
2 | 0.0221 | 0.0651 | 0.0991 | 0.0259 | 0.0178 | 0.0253 | CCOc1cc(O)cc(/C=C/c2ccc(NC=O)c(OC)c2)c1CC=C(C)C [Compound 28, (E)-N-(4-(3-Ethoxy-5-hydroxy-2-(3-methylbut-2-en-1-yl)styryl)-2-methoxyphenyl)formamide] | 0.0122 | 0.0213 | 0.0233 | 0.111 | 0.005 | 0.463 | 0.0401 |  |  |  | 0.735 |  |  | much enhanced inhibition

Row | Structure (SMILES) | IC50 (Bladder T24) [µM] | IC50 (Ewing's Sarcoma HTB-166) [µM] | IC50 (Liver HepG2) [µM] | IC50 (Lung NCI-H1437) [µM] | IC50 (Pancreatic PANC-1) [µM] | IC50 (Rhabomyosarcoma A-204) [µM] | IC50 (Bladder HT-1197) [µM] | IC50 (Bladder UMUC_3) [µM] | IC50 (Osteosarcomas SAOS-2) [µM] | IC50 (Pancreatic HPAFII) [µM] | IC50 (Tongue CAL 27) [µM] | IC50 (Bladder RT4) [µM] | IC50 (Kidney 769-P) [µM] | IC50 (GBM patient sample BNA99; Homo sapiens, 96 h) [µM] | IC50 (GBM patient sample BNB04) [µM] | IC50 (GBM patient sample BNB18; Homo sapiens, 96 h) [µM] | IC50 (Pancreatic CAPAN-1) [µM] | IC50 (GBM patient sample BNA99) [µM] | IC50 (GBM patient sample BNB18) [µM] | Cancer cell viability inhibition, statement in words [1]
3 | COc1cc(/C=C/c2cc(O)cc(OC)c2CC=C(C)C)ccc1NC=O [Compound 27, (E)-N-(4-(5-hydroxy-3-methoxy-2-(3-methylbut-2-en-1-yl)styryl)-2-methoxyphenyl)formamide] | 0.0325 | 0.133 | 0.251 | 0.0322 | 0.0288 | 0.0524 | 0.0171 | 0.0302 | 0.0424 | 0.102 | 0.015 | 0.453 | 0.11 | 8.86 | 4.31 | 0.63 | 0.792 | 8.87 | 0.634 | 
